Laboratory results: patent US6723364B1, “Fog treatment method using a liquid composition for treating fruits and vegetables and implementing device” (Xeda International, priority 1998, dated 2004)
In brackets after ≈: the same amount, converted by molar mass.

How the values were obtained:
potato tubers = assay: Sprouting-inhibiting treatment of potato tubers by thermal fogging; type: in vivo; settings: after 5 months; cold room 8 to 9° C.; 45 g/tonne then 15 g/tonne every 20 days by thermal fogging
Method: The effectiveness of eugenol and of isoeugenol in the sprouting-inhibiting treatment of potato tubers was evaluated and compared with that of other terpenes.
The following compositions were used in the case of eucalyptol, eugenol, isoeugenol, limonene, safrole and terpineol:
60% by weight of terpene;
7% by weight of a nonionic emulsifier;
33% by weight of butyl acetate.
In the case of L-carvone, the following composition was employed:
30% by weight of L-carvone;
10% by weight of ethanol;
5% by weight of nonionic emulsifier;
35% by weight of propylene glycol.
Isopropyl chlorophenylcarbamate (CIPC) is a compound used in the art as sprouting inhibitor for potato tubers. Its activity was compared with that of eugenol and of isoeugenol.
The composition based on isopropyl chloro-phenylcarbamate has the following formulation: […]
20% by weight of isopropyl chlorophenyl-carbamate;
50% by weight of propylene glycol;
10% by weight of nonionic emulsifier;
Each of the compositions tested was applied by thermal fogging. The temperature at the outlet of the thermal fogging device was 240° C., except in the case of the compositions based on L-carvone and on CIPC, where it was 180° C.
The amount of composition which has to be applied is calculated in each case so as to obtain an equivalent concentration of active material on the potato tubers.
In this example, repeated applications were carried out by following the following protocol:
45 g/tonne of tubers at the beginning of storage;
15 g/tonne of tubers every 20 days; so that, after 6 months, 165 g of active principle have been applied per tonne of tubers.
During storage, the tubers were stored in a cold room at a temperature of 8 to 9° C.

Escherichia coli = assay: Bactericidal activity in vitro in LB agar medium; type: cell-based; settings: read-out: MIC (concentration needed to completely inhibit the growth of the bacteria)
Method: (§1) The bactericidal activity of eugenol and isoeugenol was evaluated in vitro and compared with that of other terpenes.
(§2) The culture medium used is the following LB medium:
(§3) Bactotryptone: 1% by weight
(§4) Yeast extract: 0.5% by weight
(§5) A suspension of bacteria at 10^6 CFU/ml was prepared in sterilized water from the LB medium. 200 μl of this bacterial suspension were added to 20 ml of presterilized LB culture medium brought to 55° C. The tested terpene is then added to the culture medium. After agitation, the medium is immediately divided among Petri dishes. The medium solidifies on cooling.
(§6) Incubation is carried out at 28° C. when the bacterium is Erwinia carotovora and at 37° C. when the bacterium is Escherichia coli.
(§7) The growth of mould in the culture medium is observed. The same experiment is carried out in the absence of terpene (control experiment).
(§8) The protocol used is that described above.

Botrytis cinerea = assay: Fungicidal activity in vitro: mycelial growth on Cristomalt agar; type: cell-based
Method: (§9) The Cristomalt medium used for the evaluations of the fungicidal activities comprises 0.1% of Cristomalt (malt extract) and 0.2% of agar.
(§10) This culture medium is, after sterilization, brought to 55° C. The terpene compound tested is then introduced in the pure form into the culture medium under warm conditions. Immediately after agitating, the medium, enriched with the terpene product, is poured into Petri dishes (diameter 9 cm, filled with 20 ml of medium). The agar-comprising medium solidifies on cooling. The Petri dishes are then inoculated with plugs, with a diameter of 6 mm, withdrawn from the edge of a culture of the tested fungus, which culture is obtained on Cristomalt medium.
(§11) Inoculation is carried out at 22° C.
(§12) The mycelial growth was determined periodically (5 to 15 days, according to the species of fungus).
(§13) The results are expressed in Table 3 below in terms of MIC, which is the content (in μg/ml) which makes it possible to obtain complete inhibition of mycelial growth.
(§14) In f act, each experiment was carried out several times, so that, for each terpene and for each species of fungus, a minimum value and a maximum value were obtained.

[1] = system: Phlyctaena vagabonda (“Gloeosporium”); assay: as above; type: cell-based
Method: as §9, §10, §11, §12, §13, §14

Penicillium expansum = assay: as above; type: cell-based
Method: as §9, §10, §11, §12, §13, §14

Gliocladium roseum = assay: as above; type: cell-based
Method: as §9, §10, §11, §12, §13, §14

Alternaria alternata = assay: as above; type: cell-based
Method: as §9, §10, §11, §12, §13, §14

Fusarium oxysporum = assay: as above; type: cell-based
Method: as §9, §10, §11, §12, §13, §14

Penicillium digitatum = assay: as above; type: cell-based
Method: as §9, §10, §11, §12, §13, §14

Phytophtora parasitica = assay: as above; type: cell-based
Method: as §9, §10, §11, §12, §13, §14

Geocrichum candidum = assay: as above; type: cell-based
Method: as §9, §10, §11, §12, §13, §14

Erwinia carotovora = assay: Bactericidal activity in vitro in LB agar medium; type: cell-based; settings: for growth in the culture medium with respect to the control: 28° C.
Method: as §1, §2, §3, §4, §5, §6, §7
The results are evaluated using the following assessment scale:
++: mould growth identical to the control
+: mould present with a marked reduction in growth with respect to the control
: complete absence of growth.
The results obtained for 3 different concentrations, namely 20, 80 and 320 μg/ml, in the case of the bacterium Erwinia carotovora are summarized in Table 7.
as §8

[2] = read-out: MIC (content giving complete inhibition of mycelial growth)

SMILES: C=CCc1ccc2c(c1)OCO2 [SAFROLE, safrole]
- Loss in weight of the tubers (potato tubers): 3.6%
- Total weight of the sprouts >2 mm (potato tubers): 57.0 g
- Tubers at the white point stage (potato tubers): 6.6%
- Tubers with sprouts 2 to 5 mm (potato tubers): 40.1%
- Tubers with sprouts <2 mm (potato tubers): 15.6%
- Tubers with sprouts >2 mm (potato tubers): 76.6%
- Tubers with sprouts >5 mm (potato tubers): 36.5%
- Unsprouted tubers (potato tubers): 1.2%
- MIC (Escherichia coli): > 640 µg/mL
- Inhibition grades (Botrytis cinerea; BC, MIC expressed on the scale of Table 2): 5 (80-160)
- MIC (Botrytis cinerea; Botrytis cinerea, read-out: MIC (content giving complete inhibition of mycelial growth)): 80 to 160 µg/mL (≈ 493 to 987 µM)
- Inhibition grades ([1]; PV, MIC expressed on the scale of Table 2): 5 (80-160)
- MIC [1, 2]: 80 to 160 µg/mL (≈ 493 to 987 µM)
- Inhibition grades (Penicillium expansum; PE, MIC expressed on the scale of Table 2): 2 (640-1280)
- MIC (Penicillium expansum; Penicillium expansum, read-out: MIC (content giving complete inhibition of mycelial growth)): 640 to 1280 µg/mL (≈ 3950 to 7890 µM)
- MIC (Gliocladium roseum; Clonostachys rosea, read-out: MIC (content giving complete inhibition of mycelial growth)): 40 to 80 µg/mL (≈ 247 to 493 µM)
- Inhibition grades (Gliocladium roseum; GR, MIC expressed on the scale of Table 2): 6 (40-80)
- Inhibition grades (Alternaria alternata; AA, MIC expressed on the scale of Table 2): 5 (80-160)
- MIC (Alternaria alternata; Alternaria alternata, read-out: MIC (content giving complete inhibition of mycelial growth)): 80 to 160 µg/mL (≈ 493 to 987 µM)
- MIC (Fusarium oxysporum; Fusarium oxysporum, read-out: MIC (content giving complete inhibition of mycelial growth)): 80 to 160 µg/mL (≈ 493 to 987 µM)
- Inhibition grades (Fusarium oxysporum; OF, MIC expressed on the scale of Table 2): 5 (80-160)
- Inhibition grades (Penicillium digitatum; PD, MIC expressed on the scale of Table 2): 4 (160-320)
- MIC (Penicillium digitatum; Penicillium digitatum, read-out: MIC (content giving complete inhibition of mycelial growth)): 160 to 230 µg/mL (≈ 987 to 1420 µM)
- Inhibition grades (Phytophtora parasitica; PhP, MIC expressed on the scale of Table 2): 6 (40-80)
- MIC (Phytophtora parasitica; [2]): 40 to 80 µg/mL (≈ 247 to 493 µM)
- Inhibition grades (Geocrichum candidum; GC, MIC expressed on the scale of Table 2): 4 (160-320)
- MIC (Geocrichum candidum; [2]): 160 to 230 µg/mL (≈ 987 to 1420 µM)
- growth in the culture medium with respect to the control (Erwinia carotovora; Concentration 20 μg/ml): ++
- growth in the culture medium with respect to the control (Erwinia carotovora; Concentration 80 μg/ml): ++
- growth in the culture medium with respect to the control (Erwinia carotovora; Concentration 320 μg/ml): +
- MIC (Erwinia carotovora; Pectobacterium carotovorum, read-out: MIC (concentration needed to completely inhibit the growth of the bacteria)): 320 to 640 µg/mL (≈ 1970 to 3950 µM)
